Measurements: the NIST ThermoML archive (doi:10.1016/j.fluid.2004.09.013)

Conditions: for mass density: Fluid (supercritical or subcritical phases), Vibrating tube method

C/C=C/C [(E)-2-butene]
Conditions	Critical density [kg/m3]	mass density [kg/m3]
453.25 K, 34989 kPa	–	504.85
453.25 K, 39997 kPa	–	515.79
458.25 K, 5018 kPa	–	143.71
458.25 K, 15001 kPa	–	424.61
458.25 K, 20004 kPa	–	451.96
458.25 K, 24994 kPa	–	471.69
458.25 K, 30004 kPa	–	487.34
458.25 K, 34994 kPa	–	500.33
458.25 K, 40004 kPa	–	511.57
458.26 K, 9992 kPa	–	376.95
463.25 K, 5019 kPa	–	132.86
463.25 K, 9998 kPa	–	364.93
463.25 K, 14997 kPa	–	416.89
463.25 K, 20001 kPa	–	445.66
463.25 K, 24994 kPa	–	466.25
463.25 K, 29992 kPa	–	482.44
463.25 K, 34997 kPa	–	495.87
463.25 K, 39985 kPa	–	507.37
468.25 K, 5019 kPa	–	124.67
468.25 K, 14984 kPa	–	408.44
468.25 K, 19991 kPa	–	439.31
468.25 K, 24990 kPa	–	460.78
468.25 K, 29991 kPa	–	477.55
468.25 K, 34993 kPa	–	491.38
468.25 K, 39991 kPa	–	503.2
468.26 K, 9993 kPa	–	352.22
473.25 K, 5018 kPa	–	118.06
473.25 K, 9998 kPa	–	339.4
473.25 K, 15002 kPa	–	400.67
473.25 K, 19991 kPa	–	432.96
473.25 K, 24985 kPa	–	455.31
473.25 K, 29991 kPa	–	472.65
473.25 K, 35002 kPa	–	486.9
473.25 K, 39993 kPa	–	499.03
478.25 K, 5018 kPa	–	112.62
478.25 K, 9993 kPa	–	326
478.25 K, 14989 kPa	–	392.47
478.25 K, 19985 kPa	–	426.52
478.25 K, 25003 kPa	–	449.85
478.25 K, 29992 kPa	–	467.75
478.25 K, 35005 kPa	–	482.42
478.25 K, 40012 kPa	–	494.85
483.25 K, 5018 kPa	–	107.95
483.25 K, 9988 kPa	–	312.49
483.25 K, 14996 kPa	–	384.28
483.25 K, 19982 kPa	–	420.06
483.25 K, 25007 kPa	–	444.4
483.25 K, 29987 kPa	–	462.83
483.25 K, 35000 kPa	–	477.93
483.25 K, 39990 kPa	–	490.66
488.25 K, 5018 kPa	–	103.9
488.25 K, 9985 kPa	–	299.1
488.25 K, 14997 kPa	–	376.01
488.25 K, 20002 kPa	–	413.74
488.25 K, 25005 kPa	–	438.9
488.25 K, 29988 kPa	–	457.94
488.25 K, 34992 kPa	–	473.43
488.25 K, 40013 kPa	–	486.57
493.25 K, 5018 kPa	–	100.36
493.25 K, 9986 kPa	–	285.99
493.25 K, 14990 kPa	–	367.61
493.25 K, 20001 kPa	–	407.28
493.25 K, 25006 kPa	–	433.4
493.25 K, 29986 kPa	–	453.04
493.25 K, 35005 kPa	–	469.02
493.25 K, 39997 kPa	–	482.38
498.25 K, 5018 kPa	–	97.2
498.25 K, 9992 kPa	–	273.51
498.25 K, 14982 kPa	–	359.21
498.25 K, 19993 kPa	–	400.8
498.25 K, 25004 kPa	–	427.91
498.25 K, 29983 kPa	–	448.16
498.25 K, 35000 kPa	–	464.56
498.25 K, 39994 kPa	–	478.26
503.25 K, 5019 kPa	–	94.38
503.25 K, 9995 kPa	–	261.54
503.25 K, 14996 kPa	–	351.04
503.25 K, 19991 kPa	–	394.38
503.25 K, 25000 kPa	–	422.42
503.25 K, 30008 kPa	–	443.38
503.25 K, 35007 kPa	–	460.15
503.25 K, 39992 kPa	–	474.14
508.25 K, 5017 kPa	–	91.73
508.25 K, 9986 kPa	–	249.99
508.25 K, 14991 kPa	–	342.7
508.25 K, 19987 kPa	–	387.81
508.25 K, 24998 kPa	–	416.93
508.25 K, 30007 kPa	–	438.53
508.25 K, 34991 kPa	–	455.68
508.25 K, 39996 kPa	–	470.06
513.25 K, 5019 kPa	–	89.39
513.25 K, 9982 kPa	–	239.32
513.25 K, 14985 kPa	–	334.4
513.25 K, 19985 kPa	–	381.11
513.25 K, 24987 kPa	–	411.43
513.25 K, 29999 kPa	–	433.67
513.25 K, 34992 kPa	–	451.29
513.25 K, 39993 kPa	–	465.98
518.24 K, 30001 kPa	–	428.87
518.24 K, 35000 kPa	–	446.94
518.25 K, 5016 kPa	–	87.15
518.25 K, 9990 kPa	–	229.8
518.25 K, 14984 kPa	–	326.26
518.25 K, 20002 kPa	–	374.92
518.25 K, 24995 kPa	–	406.05
518.25 K, 39988 kPa	–	461.92
523.24 K, 24994 kPa	–	400.62
523.24 K, 39996 kPa	–	457.91
523.25 K, 5016 kPa	–	85.12
523.25 K, 9982 kPa	–	220.69
523.25 K, 14998 kPa	–	318.44
523.25 K, 20000 kPa	–	368.56
523.25 K, 29990 kPa	–	424.03
523.25 K, 34989 kPa	–	442.55
Liquid, visual observation in a variable volume cell:FP	236.4	–

Liquid
Conditions	Critical pressure [kPa]	Critical temperature [K]
–	4027.3	428.61
